# US20240246940A1, “HETEROARYL DERIVATIVE COMPOUND AND USE THEREOF” (VORONOI INC., priority 2021, published 2024)
# Legend:
# [1] = tested on: SK-BR-3 cells (HER2 overexpressing cell line); experiment: SK-BR-3 cell proliferation inhibitory activity (CellTiter-Glo, 120 hours); format: cell-based; conditions: Homo sapiens
# Summary of the method: (§1)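 Cells seeded 24 h (HaCaT 3000/well, N-87 5000/well) or 48 h (SK-BR-3, BT-474 5000/well) before 11-point dosing: 0.2 nM–10 μM (SK-BR-3, BT-474), […]–5 μM (N-87), 0.8 nM–45 μM (HaCaT). CellTiter-Glo luminescence read; GI50 from growth relative to control, triplicate.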
# [2] = tested on: HaCaT cells (EGFR expressing cell line); experiment: HaCaT cell proliferation inhibitory activity (CellTiter-Glo, 72 hours); format: cell-based; conditions: Homo sapiens
# Summary of the method: as §1
GI50 [1] [nM],SMILES,GI50 [2] [nM]
150 to 1000,"C=CC(=O)N1CCC(Oc2cc3c(Nc4cc(-c5ccco5)ccc4OC)ccnc3cc2OC)CC1 [Example 125, 1-(4-((4-((5-(furan-2-yl)-2-methoxyphenyl)amino)-7-methoxy-quinolin-6-yl)oxy)piperidin-1-yl)prop-2-en-1-one]",150 to 1000
150 to 1000,"C=CC(=O)N1CC(Oc2cc3c(Nc4cc(-c5cccc6ncnn56)ccc4OC)ncnc3cc2OC)C1 [Example 128, 1-(3-((4-((5-([1,2,4]triazolo[1,5-a]pyridin-5-yl)-2-methoxyphenyl)amino)-7-methoxy-quinazolin-6-yl)oxy)azetidin-1-yl)prop-2-en-1-one]",150 to 1000
150 to 1000,"C=CC(=O)N1CCC(Oc2cc3c(Nc4cc(-c5cnco5)ccc4OC)ncnc3cc2OC)CC1 [Example 130, 1-(4-((7-methoxy-4-((2-methoxy-5-(oxazol-5-yl)phenyl)amino)quinazolin-6-yl)oxy)piperidin-1-yl)prop-2-en-1-one]",150 to 1000
150 to 1000,"C=CC(=O)N1CCC(Oc2cc3c(Nc4cc(-c5ccc(C)cc5F)ccc4OC)ncnc3cc2OC)CC1 [Example 131, 1-(4-((4-((2′-fluoro-4-methoxy-4′-methyl-[1,1′-biphenyl]-3-yl)amino)-7-methoxy-quinazolin-6-yl)oxy)piperidin-1-yl)prop-2-en-1-one]",150 to 1000
> 1000,"C=CC(=O)N1CC[C@H](Oc2cc3c(Nc4cc(-c5ccco5)ccc4OC)ncnc3cc2OC)C1 [Example 132, (S)-1-(3-((4-((5-(furan-2-yl)-2-methoxyphenyl)amino)-7-methoxy-quinazolin-6-yl)oxy)pyrrolidin-1-yl)prop-2-en-1-one]",150 to 1000
150 to 1000,"C=CC(=O)N1CCC(Oc2cc3c(Nc4cc(-c5ccc(F)nc5)ccc4OC)ncnc3cc2OC)CC1 [Example 133, 1-(4-((4-((5-(6-fluoropyridin-3-yl)-2-methoxyphenyl)amino)-7-methoxy-quinazolin-6-yl)oxy)piperidin-1-yl)prop-2-en-1-one]",150 to 1000
150 to 1000,"C=CC(=O)N1CCC(Oc2cc3c(Nc4cc(-c5cccc(C#N)c5F)ccc4OC)ncnc3cc2OC)CC1 [Example 134, 3′-((6-((1-acryloyl-piperidin-4-yl)oxy)-7-methoxy-quinazolin-4-yl)amino)-2-fluoro-4′-methoxy-[1,1′-biphenyl]-3-carbonitrile]",150 to 1000
150 to 1000,"C=CC(=O)N1CCC(Oc2cc3c(Nc4cc(-c5cccc(Cl)c5F)ccc4OC)ncnc3cc2OC)CC1 [Example 135, 1-(4-((4-((3′-chloro-2′-fluoro-4-methoxy-[1,1′-biphenyl]-3-yl)amino)-7-methoxy-quinazolin-6-yl)oxy)piperidin-1-yl)prop-2-en-1-one]",150 to 1000
≤ 150,"C=CC(=O)N1CCC(Oc2cc3c(Nc4cc(-c5ccccc5F)ccc4OC)ncnc3cc2OC)CC1 [Example 136, 1-(4-((4-((2′-fluoro-4-methoxy-[1,1′-biphenyl]-3-yl)amino)-7-methoxy-quinazolin-6-yl)oxy)piperidin-1-yl)prop-2-en-1-one]",≤ 150
≤ 150,"C=CC(=O)N1CCC(Oc2cc3c(Nc4cc(-c5cccc(F)c5F)ccc4OC)ncnc3cc2OC)CC1 [Example 137, 1-(4-((4-((2′,3′-difluoro-4-methoxy-[1,1′-biphenyl]-3-yl)amino)-7-methoxy-quinazolin-6-yl)oxy)piperidin-1-yl)prop-2-en-1-one]",≤ 150
> 1000,"C=CC(=O)N1CCC(F)(F)C(Oc2cc3c(Nc4cc(-c5ccc(F)cc5F)ccc4OC)ncnc3cc2OC)C1 (stereo not drawn) [Example 141, 1-(3-((4-((2′,4′-difluoro-4-methoxy-[1,1′-biphenyl]-3-yl)amino)-7-methoxy-quinazolin-6-yl)oxy)-4,4-difluoro-piperidin-1-yl)prop-2-en-1-one]",150 to 1000
≤ 150,"C=CC(=O)N1CCC(Oc2cc3c(Nc4cc(-c5cccs5)ccc4OC)ncnc3cc2OC)C(F)C1 (stereo not drawn) [Example 144, 1-(3-fluoro-4-((7-methoxy-4-((2-methoxy-5-(thiophen-2-yl)phenyl)amino)quinazolin-6-yl)oxy)piperidin-1-yl)prop-2-en-1-one]",≤ 150
≤ 150,"C=CC(=O)N1CCC(Oc2cc3c(Nc4cc(-c5cc(F)cnc5F)ccc4OC)ncnc3cc2OC)CC1 [Example 145, 1-(4-((4-((5-(2,5-difluoropyridin-3-yl)-2-methoxyphenyl)amino)-7-methoxy-quinazolin-6-yl)oxy)piperidin-1-yl)prop-2-en-1-one]",≤ 150
150 to 1000,"C=CC(=O)N1CCC(Oc2cc3c(Nc4cc(-c5ccc(F)nc5F)ccc4OC)ncnc3cc2OC)CC1 [Example 147, 1-(4-((4-((5-(2,6-difluoropyridin-3-yl)-2-methoxyphenyl)amino)-7-methoxy-quinazolin-6-yl)oxy)piperidin-1-yl)prop-2-en-1-one]",150 to 1000
≤ 150,"C=CC(=O)N1CCC(Oc2cc3c(Nc4cc(-c5ccco5)ccc4OC)ncnc3cc2OC)C(C)C1 (stereo not drawn) [Example 148, 1-(4-((4-((5-(furan-2-yl)-2-methoxyphenyl)amino)-7-methoxy-quinazolin-6-yl)oxy)-3-methylpiperidin-1-yl)prop-2-en-1-one]",≤ 150
150 to 1000,"C=CC(=O)N1CCC(Oc2cc3c(Nc4cc(-c5ccncc5)ccc4OC)ncnc3cc2OC)CC1 [Example 149, 1-(4-((7-methoxy-4-((2-methoxy-5-(pyridin-4-yl)phenyl)amino)quinazolin-6-yl)oxy)piperidin-1-yl)prop-2-en-1-one]",150 to 1000
> 1000,"C=CC(=O)N1CCCC(Oc2cc3c(Nc4cc(-c5ccco5)ccc4OC)ncnc3cc2OC)C1 (stereo not drawn) [Example 162, 1-(3-((4-((5-(furan-2-yl)-2-methoxyphenyl)amino)-7-methoxy-quinazolin-6-yl)oxy)piperidin-1-yl)prop-2-en-1-one]",150 to 1000
150 to 1000,"C=CC(=O)N1CCC(Oc2cc3c(Nc4cc(-c5ccco5)ccc4OC)ncnc3cc2OC)CC1C(F)(F)F (stereo not drawn) [Example 164, 1-(4-((4-((5-(furan-2-yl)-2-methoxyphenyl)amino)-7-methoxy-quinazolin-6-yl)oxy)-2-(trifluoromethyl)piperidin-1-yl)prop-2-en-1-one]",≤ 150
> 1000,"C=CC(=O)N1CCC(Oc2cc3c(Nc4cc(-c5ccc(F)cc5F)ccc4OC)ncnc3cc2OC)CC1C(F)(F)F (stereo not drawn) [Example 165, 1-(4-((4-((2′,4′-difluoro-4-methoxy-[1,1′-biphenyl]-3-yl)amino)-7-methoxy-quinazolin-6-yl)oxy)-2-(trifluoromethyl)piperidin-1-yl)prop-2-en-1-one]",150 to 1000
150 to 1000,"C=CC(=O)N1CCC(Oc2cc3c(Nc4cc(-c5cccc(N)c5)ccc4OC)ncnc3cc2OC)CC1 [Example 180, 1-(4-((4-((3′-amino-4-methoxy-[1,1′-biphenyl]-3-yl)amino)-7-methoxy-quinazolin-6-yl)oxy)piperidin-1-yl)prop-2-en-1-one]",> 1000

SMILES,GI50 [1] [nM],GI50 [2] [nM]
"C=CC(=O)N1C2CCC1CC(Oc1cc3c(Nc4cc(-c5ccco5)ccc4OC)ncnc3cc1OC)C2 (stereo not drawn) [Example 166, 1-(3-((4-((5-(furan-2-yl)-2-methoxyphenyl)amino)-7-methoxy-quinazolin-6-yl)oxy)-8-azabicyclo [3.2.1]octan-8-yl)prop-2-en-1-one]",≤ 150,≤ 150
